# Test results reported in patent US8834919B2, “Lipid emulsions in the treatment of systemic poisoning” (priority 1998, dated 2014).
# Key:
# [1] = octanol:water; P = [organic]/[aqueous]; cited from earlier work
# [2] = tested on: rats; experiment: Pretreatment with lipid emulsion: cocaine toxicity in rats; assay type: in vivo, rat; conditions: control (saline), cocaine iv 5 mg/kg/min
# Experimental: Because of the significant potential benefit, experiments were performed to test an infusion of a lipid emulsion as a method of treating cocaine toxicity. Anesthetized, ventilated rats were infused with a lipid emulsion (20% Intralipid® at 10 ml/kg for 2 minutes) and then administered an intravenous infusion of cocaine at 5 mg/kg/min to hypotension (blood pressure is less than 40 mmHg) or asystole (no heartbeat for 5 seconds). […] Thus, pretreatment with a lipid emulsion composition shifts the dose-response of cocaine in much the same way as bupivacaine. This is an expected result given the similar properties and effects between cocaine and bupivacaine. These findings indicate that lipid infusion can be used to treat patients experiencing acute cardiovascular compromise in cocaine overdose.
# [3] = Bupivacaine lipid:aqueous partition in a mixture of Intralipid and rat plasma; assay type: physicochemical
# Experimental: The bupivacaine lipid:aqueous partition coefficient was determined for a mixture of Intralipid® and rat plasma. Blood obtained from rats by direct heart puncture under halothane anesthesia was centrifuged and the plasma was separated. Equal volumes of about 30% Intralipid® and plasma (approximately 2 ml each) were combined and vortexed. Approximately 1.0 μCi of titriated bupivacaine (specific activity 0.81 Ci/mole) was added to the mixture to a final bupivacaine concentration of about 93 μg/ml. This mixture was vortexed again then separated into aliquots of about 1 ml. These aliquots were allowed to sit undisturbed for about one hour at about 38° C., then centrifuged at about 10,000 g for about 10 minutes. High speed centrifugation separated each of these mixtures into a clear aqueous phase (about 0.85 ml) under a lipid phase (about 0.15 ml). The latter comprised a clear layer beneath a very thin white cap. The cap was removed then redissolved in saline to a total volume of about 1 ml. Aliquots of this solution and the aqueous plasma phase were then analyzed for tritiated bupivacaine content by liquid scintillation counting. The bupivacaine lipid:aqueous partition coefficient was given by the ratio of bupivacaine in the combined lipid phase (following correction for saline dilution) to the bupivacaine in the aqueous phase. This experiment was performed in triplicate.
# [4] = tested on: Male Sprague-Dawley rats; experiment: Pretreatment with lipid emulsion: dose-response to bupivacaine induced asystole in rats (protocol 1); assay type: in vivo, rat
# Text: Studies were undertaken to assess the ability of a lipid emulsion to shift the dose-response to drug-induced asystole (heart stoppage) in rats. Pretreatment with a lipid emulsion increased the dose of bupivacaine (a local anesthetic) required to induce asystole. Racemic bupivacaine hydrochloride was purchased from Sigma (St. Louis, Mo.) while tritiated bupivacaine was purchased from Moravek Biochemicals (Brea, Calif.). Intralipid® was purchased from Baxter Healthcare (Deerfield, Ill.). Male Sprague-Dawley rats weighing between about 250 grams to about 370 grams were used in all experiments.
# Animals were first anesthetized in a bell jar with isoflurane to allow intubation, then mechanically ventilated with about 1.75% isoflurane in about 100% oxygen using a Harvard rodent ventilatory model 680 in conjunction with a tidal volume of 3 ml and a starting rate of about 40 breaths per minute. […] Electrocardiogram (BCG) was monitored via three subcutaneous needle electrodes in each rat. […]
# All animals were allowed to stabilize for about 15 minutes while arterial blood pressure and ECG were monitored. […]
# Immediately following pretreatment, all animals received an infusion of about 0.75% bupivacaine via the internal iliac catheter at a rate of 10 mg/kg/min to an end point of about ten seconds of asystole. […] The cumulative lethal dose of bupivacaine was calculated in mg/kg for all animals. […]
# [5] = Resuscitation from a toxic bupivacaine dose with lipid emulsion (protocol 2); conditions: male, Sprague-Dawley, rat, in vivo, iv, resuscitation with saline infusion after iv bupivacaine bolus; probit analysis
# Experimental: Bupivacaine dose and plasma concentrations were analyzed by Kruskal-Wallis one way analysis of variance on ranks. Post hoc testing of both data sets was performed by Student-Newman-Keul's method for multiple comparisons (SigmaStat, Jandel Scientific/San Rafael, Calif.). Cumulative bupivacaine dose data were nonparametric and median values were compared by differences of ranks. Plasma bupivacaine concentration data were parametric and differences in mean values were evaluated. Probit analysis (CalcuSyn, Biosoft/Cambridge, England) was used to compare bupivacaine LD50 values in the saline and lipid portions. The difference in survival of the two groups at 15 mg/kg bupivacaine was further evaluated using a z test of proportions. Statistical significance in all experiments was taken as p less than or equal to 0.05.
# Experiments were performed to evaluate the ability of a lipid emulsion to resuscitate an animal from a toxic dose of bupivacaine. All animals were anaesthetized, instrumented and stabilized at about 1.75% isoflurane as described in Example 1, and arterial blood pressure and ECG were continuously monitored. […] Survival was scored about 5 minutes after the bupivacaine bolus and required both heart rate greater than about 100 beats per minute and systolic blood pressure greater than about 60 mmHg. […]
# [6] = assay type: in vivo, rat; conditions: saline pretreatment (group 1); +/- SEM
# Experimental: Immediately following pretreatment, all animals received an infusion of about 0.75% bupivacaine via the internal iliac catheter at a rate of 10 mg/kg/min to an end point of about ten seconds of asystole. Blood was then drawn from the aorta into a heparinized syringe for plasma bupivacaine determinations. The cumulative lethal dose of bupivacaine was calculated in mg/kg for all animals.
# Plasma bupivacaine concentrations were determined by high performance liquid chromatograph (HPLC) after the samples had been extracted with hexane. The method of hexane extraction was validated with bupivacaine spiked samples and provided greater than about 95% recovery of bupivacaine from both normal and lipemic plasma. Thus, plasma bupivacaine concentrations reflected total bupivacaine content in both the aqueous and lipid phases of the specimen. […] The drugs were detected at a wavelength of about 215 nm.
# Bupivacaine dose and plasma concentrations were analyzed by Kruskal-Wallis one way analysis of variance on ranks. […] Plasma bupivacaine concentration data were parametric and differences in mean values were evaluated. […] The difference in survival of the two groups at 15 mg/kg bupivacaine was further evaluated using a z test of proportions. […]
smiles,measurement,setting,value
CCCN1CCCC[C@H]1C(=O)Nc1c(C)cccc1C [ropivacaine],logP,[1],3.11
COC(=O)[C@H]1[C@@H](OC(=O)c2ccccc2)C[C@@H]2CC[C@H]1N2C [cocaine],time to asystole,[2],368 ± 27 s
same,mean time to hypotension (40 mmHg),[2]; n=8,143 ± 22 s
CCCCNc1ccc(C(=O)OCCN(C)C)cc1 [tetracaine],logP,[1],3.49
Nc1nnc(-c2cccc(Cl)c2Cl)c(N)n1 [lamotrigine],logP,[1],−0.19
COc1ccc([C@@H]2Sc3ccccc3N(CCN(C)C)C(=O)[C@@H]2OC(C)=O)cc1 [diltiazem],logP,[1],4.53
Cc1cccc(C)c1NC(=O)C1CCCCN1C (stereo not drawn) [mepivacaine],logP,[1],2.04
CCCCN1CCCCC1C(=O)Nc1c(C)cccc1C (racemic) [bupivacaine],percent of total bupivacaine dissolved in the lipid phase,"[3]; equal volumes of about 30% Intralipid and plasma, lipid volume about 15% of total",about 75.3%
same,lipid:aqueous ratio of bupivacaine concentrations,"[3]; equal volumes of about 30% Intralipid and rat plasma, about 38 °C, about 93 μg/ml, +/- standard error, triplicate",11.9+/−1.77
same,Median bupivacaine lethal dose,"[4]; saline pretreatment (group 1), 0.75% bupivacaine 10 mg/kg/min to asystole, n=6",17.8 mg/kg
same,"lethal bupivacaine dose, lower end of range among all animals",[4]; single animal receiving saline pretreatment,about 12.7 mg/kg
same,LD50 at 5 min,[5],12.5 mg/kg
same,mean plasma bupivacaine concentration at the time of asystole,[6],93.3 ± 7.6 µg/mL
same,logP,[1],3.64
CC(NC(C)(C)C)C(=O)c1cccc(Cl)c1 (stereo not drawn) [bupropion],logP,[1],3.47
